Tested on: tau tangles/Aβ plaques on AD brain sections
Experiment: Assay 1: direct staining of human Alzheimer's disease brain sections (fluorescence)
Format: binding
Set-up: key to Direct staining of tau tangles/Aβ plaques on AD brain sections at 100 μM / Direct staining of tau tangles on AD brain sections at 100 μM / Direct staining of Aβ plaques on AD brain sections at 100 μM / Direct staining of tau tangles on AD brain sections (footnote a: at 250 μM): − (No); +++ (strong); ++ (good); + (weak)
Procedure: Assay 1 (Fluorescence Based Assay):
Direct Binding of Compounds of this Invention to Human Alzheimer's Disease Brain Sections and/or Displacement of RefA and Compound B
Frozen sections with a thickness of […] from the amygdala of donors diagnosed with Braak stage V-VI Alzheimer's Disease (Braak, H.; Braak, E. Acta Neuropathol., 1991, 82, 239-259), were purchased from a commercial provider (Tissue Solutions) and kept at −80° C. until use.
Direct Staining of Human Alzheimer's Disease Brain Sections
Brain sections were encircled with pap pen liquid blocker to reduce the volume of solution for the different incubations. Sections were fixed for 15 min at 4° C. with 4% paraformaldehyde and washed three times 5 minutes with PBS at room temperature. […] To reduce the auto-fluorescence of the tissue, the sections were incubated in a solution of 0.1% Sudan Black (Sigma 199664) in 70% ethanol for 15 min at room temperature in the dark, washed four times for 5 minutes with PBS, and mounted using ProLong Gold Antifade reagent (Invitrogen P36930). Sections were then analyzed on the Nikon Eclipse Ti microscope to detect staining and imaged using Nikon DS-Fi2 camera and NIS-Element AR4.13.1 software.

[1] = 100 μM compound, human AD brain sections, fluorescence, cell does not say tangles or plaques

SMILES	Direct staining of tau tangles/Aβ plaques on AD brain sections at 100 μM [1]	Direct staining of Aβ plaques on AD brain sections at 100 μM (100 μM compound)	Direct staining of tau tangles on AD brain sections at 100 μM (100 μM compound)	other results
Cn1c2c(c3ccc(Nc4ccc(F)c(F)c4)nc31)C(=O)N(CCCN)CC2 [213 Step F]				Direct staining of tau tangles/Aβ plaques on AD brain sections at 100 μM (100 μM in 50% ethanol, 20 min, "(tangles)" beside the symbol = tangles stained): −
COc1ccc(/C=C/c2ccc3nc(N4CCOCC4)sc3c2)cc1 [Compound B, reference compound]				Direct staining of Aβ plaques on AD brain section (100 μM, FIG. 2): Direct staining of Aβ plaques
Cn1c2ccncc2c2ccc(Nc3ccc(F)cc3)nc21 [Example 18]	−			
Cn1c2ccncc2c2ccc(Nc3ccc(OCCF)cc3)nc21 [Example 20]		+ (plaques)		
Cn1c2ccncc2c2ccc(Nc3ccc(C#N)c(OCCF)c3)nc21 [Example 21]	−			
Cn1c2ccncc2c2ccc(Nc3ccc(F)nc3)nc21 [Example 22]		+ (tangles) + (plaques	+ (tangles) + (plaques	
COc1cc(Nc2ccc3c4cnccc4n(C)c3n2)ccn1 [Example 24]		+ (plaques)		
Cn1c2ccncc2c2ccc(N3CCN(c4ccc(F)cc4)CC3)nc21 [Example 25]		+ (tangles) + (plaques)	+ (tangles) + (plaques)	
CN(CCF)c1cccc(Nc2ccc3c4cnccc4n(C)c3n2)c1 [Example 26]		+++ (plaques)		
Fc1ccc(Nc2ccc3c(n2)[nH]c2ccncc23)cc1F [Example 27]		+ (tangles) + (plaques)	+ (tangles) + (plaques)	
Cn1c2ccncc2c2ccc(Nc3cncc(F)c3)nc21 [Example 29]			+ (tangles)	
COc1ccc(Nc2ccc3c4cnccc4n(C)c3n2)cc1F [Example 30]		+ (tangles) + (plaques)	+ (tangles) + (plaques)	
COc1cc(Nc2ccc3c4cnccc4n(C)c3n2)ccc1F [Example 31]		+ (tangles) + (plaques)	+ (tangles) + (plaques)	
Cn1c2ccncc2c2ccc(Nc3cccc(N4CC(F)C4)c3)nc21 [Example 32]		+ (tangles) + (plaques)	+ (tangles) + (plaques)	
Cn1c2ccncc2c2ccc(Nc3cccc(N4CCC(F)CC4)c3)nc21 [Example 33]		+ (tangles) + (plaques)	+ (tangles) + (plaques)	
Cc1ccc(Nc2ccc3c4cnccc4n(C)c3n2)cc1OCCF [Example 34]			+++ (tangles)	
Cn1c2ccncc2c2ccc(Nc3cccc(C(F)F)c3)nc21 [Example 35]		++ (tangles) ++ (plaques)	++ (tangles) ++ (plaques)	
Cc1ccc(Nc2ccc3c4cnccc4n(C)c3n2)cc1OC(F)F [Example 36]		+ (plaques)		
Fc1ccc(Nc2ccc3c(c2)[nH]c2ccncc23)cc1F [Example 37]			+ (tangles)	
Cn1c2ccncc2c2ccc(Nc3ccc(F)c(F)c3)cc21 [Example 39]			++ (tangles)	

SMILES	Direct staining of tau tangles/Aβ plaques on AD brain sections at 100 μM [1]	Direct staining of Aβ plaques on AD brain sections at 100 μM (100 μM compound)	Direct staining of tau tangles on AD brain sections at 100 μM (100 μM compound)	other results
CN(C)c1cc(Nc2ccc3c4cnccc4n(C)c3n2)ccc1F [Example 41]	−			
CNc1cc(Nc2ccc3c4cnccc4n(C)c3n2)ccc1F [Example 42]		+++ (plaques)		
Cn1c2ccncc2c2ccc(Nc3cccc(SCCF)c3)nc21 [Example 43]		+ (tangles) + (plaques)	+ (tangles) + (plaques)	
Cc1nn(CCF)c(C)c1Nc1ccc2c3cnccc3n(C)c2n1 [Example 49]			+ (tangles)	
Cn1c2ccncc2c2ccc(Nc3ccc(OCCF)nc3)nc21 [Example 50]		+ (tangles) + (plaques)	+ (tangles) + (plaques)	
Cn1c2ccncc2c2ccc(Nc3cccc(OCCOCCF)n3)nc21 [Example 56]			++ (tangles)	
Cn1c2ccncc2c2ccc(Nc3ccc(F)c(OCCF)c3)nc21 [Example 57]			++ (tangles)	
Cn1c2ccncc2c2ccc(Nc3ccnc(OCCF)c3)nc21 [Example 58]		+++ (plaques)		
Cn1c2ccncc2c2ccc(Nc3cccc(OCCOCCOCCF)n3)nc21 [Example 60]		++ (tangles) ++ (plaques)	++ (tangles) ++ (plaques)	
Cn1c2ccncc2c2ccc(Nc3ncc(C#N)s3)nc21 [Example 61]	−			
Cn1c2ccncc2c2ccc(Nc3ccc(OCCF)cn3)nc21 [Example 62]			+ (tangles)	
Cn1c2ccncc2c2ccc(Nc3csc(OCCF)n3)nc21 [Example 69]			++ (tangles)	
Cn1c2ccncc2c2ccc(Nc3cccc(NCCF)c3)nc21 [Example 71]		+ (tangles) + (plaques)	+ (tangles) + (plaques)	
Cn1c2ccncc2c2ccc(Nc3ccc(NCCF)cn3)nc21 [Example 79]	−			
CN1CCc2c(c3ccc(Nc4cccc(NCCF)n4)nc3n2C)C1=O [Example 81]	−			
Cn1c2c(c3ccc(Nc4ccc(NCCF)cn4)nc31)C(=O)NCC2 [Example 82]			+ (tangles)	
CN1CCc2c(c3ccc(Nc4ccc(NCCF)cn4)nc3n2C)C1=O [Example 83]			+ (tangles)	
CN1CCc2c(c3ccc(Nc4cccc(NCCF)c4)nc3n2C)C1=O [Example 84]	−			
Cn1c2ccncc2c2ccc(Nc3cncc(OCCCF)c3)nc21 [Example 97]			+++ (tangles)	
Cn1c2ccncc2c2ccc(Nc3ccc(F)c([N+](=O)[O-])c3)nc21 [Example 98]	−			

SMILES	Direct staining of tau tangles/Aβ plaques on AD brain sections at 100 μM [1]	Direct staining of Aβ plaques on AD brain sections at 100 μM (100 μM compound)	Direct staining of tau tangles on AD brain sections at 100 μM (100 μM compound)	other results
Cn1c2ccncc2c2ccc(Nc3ccc([N+](=O)[O-])c(F)c3)nc21 [Example 99]	−			
Cn1c2ccncc2c2ccc(Nc3cc(CCF)ccn3)nc21 [Example 148]			++ (tangles)	
Cn1c2ccncc2c2ccc(Nc3cccc(CCF)n3)nc21 [Example 149]			++ (tangles)	
Cn1c2ccncc2c2ccc(N3CCC[C@H](F)C3)nc21 [Example 158]			++ (tangles)	
Cn1c2ccncc2c2ccc(N3CC[C@H](F)C3)nc21 [Example 160]	−			
Cn1c2cccnc2c2ccc(Nc3cccc(OCCF)c3)nc21 [Example 163]			++ (tangles)	
FCCN(c1ccc(F)c(F)c1)c1ccc2c3cnccc3n(CCF)c2n1 [Example 164]		+ (plaques)		
OCCn1c2ccncc2c2ccc(Nc3cccc(OCCF)c3)nc21 [Example 165]	−			
OCCn1c2ccncc2c2ccc(Nc3ccc(F)c(F)c3)nc21 [Example 166]	−			
COCCOCCn1c2ccncc2c2ccc(Nc3cccc(OCCF)c3)nc21 [Example 167]	−			
Cn1c2c(c3ccc(Nc4ccc(N5CCOCC5)cc4)nc31)C(=O)NCC2 [Example 173]	−			
Cn1c2c(c3ccc(Nc4ccc(C#N)c(OCCF)c4)nc31)C(=O)NCC2 [Example 176]	−			
Cn1c2c(c3ccc(Nc4ccc(OCCF)cc4)nc31)C(=O)NCC2 [Example 177]	−			
Cn1c2c(c3ccc(Nc4cccc(OCCF)c4)nc31)C(=O)NCC2 [Example 178]	−			
Cn1c2c(c3ccc(Nc4ccc(C#N)c(F)c4)nc31)C(=O)NCC2 [Example 179]			+ (tangles)	
COc1cc(Nc2ccc3c4c(n(C)c3n2)CCNC4=O)ccc1F [Example 180]	−			
COc1cc(Nc2ccc3c4c(n(C)c3n2)CCNC4=O)ccn1 [Example 181]			+ (tangles)	
CN1CCc2c(c3ccc(Nc4ccc(F)nc4)nc3n2C)C1=O [Example 182]	−			
Cn1c2c(c3ccc(Nc4ccc(F)c(F)c4)nc31)C(=O)N(CCF)CC2 [Example 183]		+ (plaques)		

Reference: patent US10662193B2, “Carbazole and carboline compounds for use in the diagnosis, treatment, alleviation or prevention of disorders associated with amyloid or amyloid-like proteins” (AC IMMUNE SA, priority 2014, dated 2020)
